# Legend:
# [1] = tested on: mouse microglia in primary culture; assay: NO production in mouse microglia; assay type: cell-based
# T98 g cells = assay: Signaling pathway and cell death in T98 g cells; assay type: cell-based, human
# Protocol: To determine the signaling pathway activated by AI receptors, T98 g cells were treated and changes in select kinase and mediatior of cell death were measured.
# CB2 = CB2 (Homo sapiens, UniProt P34972); assay: HA-tagged receptor internalization, CB2; assay type: cell-based; set-up: HA; expressed in transfected cells; details: FIG. 2b
# Description: FIGS. 2d and 2e illustrate the co-docking of CP55940 and either WIN55212-2 (d) or ST-11 (e) in hCB1 receptors.
# [2] = tested on: mouse microglia in primary culture; assay: Cell viability in mouse microglia; assay type: cell-based
# DBT tumors = DBT tumors implanted in BalbC mice; assay type: in vivo, mouse; details: treated daily over 2 weeks
# DBT cells = assay: Killing of DBT mouse astrocytoma cells; assay type: cell-based; details: FIG. 10c
# Description: Cannabinoid receptors are known to regulate cell migration.
# [3] = tested on: mouse microglia in primary culture; assay: Microglia cell migration; assay type: cell-based
# CB1 = assay: [3H]-CP55940 binding competition at CB1; set-up: species or system human; details: FIG. 2c
# Protocol: Fragments were amplified from total RNA of cell lines by reverse transcriptase-polymerase chain reaction (RT-PCR). Sequence was confirmed and the fragment was cloned into the EcoRI site of the pIRES2-eGFP-express vector. Cells were grown to approximately 80% confluence in 10 cm cell culture dishes, transfected with the cDNA pIRES-eGFP-vector containing the human CB1 or CB2 receptor using LipofectAMINE™ 2000 reagent in the serum-free media Opti-MEM 1 according to the manufacturer's description. Cells were subject to FACS sorting 48 his after transfection and single cell sorted based on dsRed expression into 96-well plates. Of the dsRed expressing positive clones, 3 were validated for CB1 and CB2 protein expression by radioligand binding analysis (methods discussed below).
# Cells were grown to 90% confluence, rinsed twice with 1× PBS and stored at −80° C. until further use. To prepare crude cellular membrane fractions, dishes were removed from −80° C. and thawed at room temperature for 5 min. Once thawed, cells were lysed with ice-cold homogenization buffer (50 mM Tris, 1 mM EDTA, 3 mM MgCl2) and gently scraped from the dish. Total cell lysates from 3-5 dishes were collected on ice in 3 ml of ice-cold homogenization buffer Cells were homogenized at 6,500 rpm (PRO Scientific, Oxford, Conn.) twice for 10 sec and centrifuged at 11,500 rpm for 20 min at 4° C. […]
# [4] = tested on: AI receptors (mouse microglia in primary culture); assay: [3H]-WIN55212 binding in mouse microglia
# AI receptors [5] = assay: GTPγS binding in HEK293 cell homogenates; assay type: biochemical, human
# Description: (§1) When comparing the overall amino acid sequence of GPR124 to that of CB1 and CB2 receptors no significant homology was found. However, when focusing the comparison to the amino acid sequence encoding for the third transmembrane domains of GPR124 and CB2 receptors, 84% homology was found (FIG. 5a). […] Therefore, it is likely that ST-1, ST-11, and other AI compounds interact directly with the third transmembrane domain of GPR124. To determine the signaling mechanism of AI receptors, effect of ST-11 in HEX293 cells, which express GPR124 endogenously and commonly used to study GPCR pharmacology and signaling pathway, was tested.
# [6] = tested on: mouse microglia in primary culture; assay: cAMP production in mouse microglia; assay type: cell-based
# AI receptors [7] = assay: cAMP production in HEK293 cells; assay type: cell-based, human
# Description: as §1
# [8] = Accelerating rotarod, acute toxicity in healthy mice; assay type: in vivo, mouse
# Protocol: As an initial step to test the therapeutic efficacy of ST-11 in vivo, the pharmacokinetic profile and acme toxicity profile of ST-11 in healthy mice were determined. FIG. 13 illustrates an LC-MS chromatogram and calibration curve of ST-11 (a & 13). PK profile of ST-11 (c, d, e & f).
# Chain of CB2 (P34972 whole entry): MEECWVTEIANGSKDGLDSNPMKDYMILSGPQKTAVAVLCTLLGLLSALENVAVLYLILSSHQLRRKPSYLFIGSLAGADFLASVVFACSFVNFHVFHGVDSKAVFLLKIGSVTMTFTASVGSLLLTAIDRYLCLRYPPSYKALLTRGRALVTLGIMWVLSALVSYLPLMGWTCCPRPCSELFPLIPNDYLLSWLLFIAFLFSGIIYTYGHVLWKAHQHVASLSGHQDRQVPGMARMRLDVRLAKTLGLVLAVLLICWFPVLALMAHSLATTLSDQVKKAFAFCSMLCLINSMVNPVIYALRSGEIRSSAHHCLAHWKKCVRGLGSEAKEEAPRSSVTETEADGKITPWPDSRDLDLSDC
smiles,measurement,setting,value
CCn1c(C)c(C(=O)c2ccc(C)c3ccccc23)c2ccccc21 [ST-11],NO production,[1],does not stimulate or inhibit
same,"cell death (cell number, nuclear fragmentation, cell blebbing)",T98 g cells; after 48 hrs,followed by cell death
same,PARP cleavage,T98 g cells; within hours,cleaves PARP
same,activation of PLK-1,T98 g cells; within hours,induces the activation of PLK-1
same,caspase 3 activation,T98 g cells; within hours,caspase 3 activation
same,cross-activation of human CB2 receptors (receptor internalization),CB2,engage CB2 receptors
same,cell viability in microglia,[2],does not
same,number of lymphocytes in DBT tumors,DBT tumors,increases the number of lymphocytes
same,number of microglia in DBT tumors,DBT tumors,increases
same,killing of DBT cells,DBT cells,kills DBT cells
same,microglia cell migration stimulated by ATP,[3],inhibits
same,competition for [3H]-CP55940 binding at CB1,CB1,but not for [^3H]-CP55940 binding
same,competition for [3H]-WIN55212 binding,[4],competed
same,GTPγS binding,AI receptors [5],activation of GTP[…]S binding
same,cAMP production stimulated by Isoproterenol,[6],inhibits cAMP production
same,cAMP production,AI receptors [7],inhibition of cAMP production
same,locomotor activity on an accelerating rotarod,[8],does not influence locomotor activity
